Some test systems named below: HL-60(TB) leukemia; HCT-15 colon; SF-295 CNS; SK-MEL-28 melanoma; UACC-62 melanoma; NCI-H522 lung; A549 NSCLC; OVCAR-3 ovarian; M14 melanoma; MOLT-4 leukemia.
What all share (experiment): NCI tumour cell line growth inhibition, 48 h

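All cell lines were grown in 96-well plates and treated with compound for 48 hours. Here, GI50 denotes the concentration required for 50% inhibition of growth. TGI is the concentration that stops growth completely.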 Some results are limits rather than exact numbers.

Consider `CCc1ccc(NC(=O)COC(=O)c2cc([N+](=O)[O-])ccc2Sc2nnnn2C)cc1`, for which the GI50 in the test on HL-60(TB) leukemia is 18.8 µM; with HCT-15 colon it was 13 µM; in the test on SF-295 CNS, 17.5 µM; in the test with SK-MEL-28 melanoma, 9.94 µM; with UACC-62 melanoma, 15.2 µM; in the test with NCI-H522 lung, 11.5 µM. Moreover, the GI50 is 19.7 µM in the test with A549 NSCLC, 11.7 µM in the test with OVCAR-3 ovarian, 3.16 µM in the test with M14 melanoma and 20.3 µM in the test on MOLT-4 leukemia. For the same compound, the TGI was 49.7 µM in the test on HL-60(TB) leukemia; 37.3 µM in the test with HCT-15 colon; 49.4 µM in the test with SF-295 CNS; 28.8 µM in the test on SK-MEL-28 melanoma; 48 µM with UACC-62 melanoma; 36.3 µM in the test with NCI-H522 lung. The TGI in the test with A549 NSCLC was found to be 53.1 µM; in the test on OVCAR-3 ovarian it was 25.4 µM; in the test on M14 melanoma, 26 µM; with MOLT-4 leukemia, 81.6 µM.
For the compound `Cc1ccc(Nc2nc(C)c(C(/C=C/c3ccc(/C=C/C(=N/NC(=O)C[n+]4ccccc4)c4sc(Nc5ccc(C)cc5[N+](=O)[O-])nc4C)cc3)=N\NC(=O)C[n+]3ccccc3)s2)c([N+](=O)[O-])c1`, the TGI in the test with HL-60(TB) leukemia was > 100 µM; in the test with HCT-15 colon, > 100 µM; in the test on SF-295 CNS it was > 100 µM; with SK-MEL-28 melanoma it was > 100 µM; with UACC-62 melanoma, 67 µM; in the test on NCI-H522 lung, > 100 µM. Moreover, the TGI in the test on A549 NSCLC, with OVCAR-3 ovarian, with M14 melanoma and in the test with MOLT-4 leukemia was > 100 µM each time.
As for `C[C@]12CCC3[C@@H](CC[C@@H]4c5nonc5CC[C@]34C)C1C/C(=N/O)C2=O` (stereo not given in full), the TGI with HL-60(TB) leukemia is 13.3 µM; with HCT-15 colon, > 100 µM; in the test on SF-295 CNS it was > 100 µM; in the test with SK-MEL-28 melanoma, > 100 µM; in the test on UACC-62 melanoma, > 100 µM; in the test on NCI-H522 lung it was > 100 µM. Further, the TGI in the test on A549 NSCLC, in the test on OVCAR-3 ovarian, in the test on M14 melanoma and in the test on MOLT-4 leukemia was > 100 µM in each case.
`O=CC1CCCc2ccccc21` (stereo not given): the TGI in the test with HL-60(TB) leukemia is > 100 µM; in the test on HCT-15 colon it was > 91.6 µM; in the test with SF-295 CNS, > 100 µM; with SK-MEL-28 melanoma, > 100 µM; with UACC-62 melanoma, > 100 µM; with NCI-H522 lung, > 100 µM. The TGI with A549 NSCLC, with OVCAR-3 ovarian, in the test with M14 melanoma and in the test with MOLT-4 leukemia was > 100 µM each time.
For `Cc1ccc(C)c(NC(=O)CC/C(=N\NC(=O)c2c(O)ccc3ccccc23)C(C)C(=O)c2ccc(O)cc2)c1` (stereo not given), the TGI with HL-60(TB) leukemia was > 100 µM; in the test with HCT-15 colon, > 100 µM; with SF-295 CNS, > 100 µM; with SK-MEL-28 melanoma it was > 100 µM; in the test with UACC-62 melanoma, 34.3 µM; in the test on NCI-H522 lung it was 42.6 µM. Further, the TGI in the test on A549 NSCLC is > 100 µM; in the test on OVCAR-3 ovarian, 89.2 µM; in the test with M14 melanoma it was 41.4 µM; in the test on MOLT-4 leukemia, > 100 µM.
Take `CCCCN(CCCC)c1ccc(C(=N)c2ccc(N(CCCC)CCCC)cc2)cc1`: the GI50 in the test on HL-60(TB) leukemia was 0.479 µM; in the test with HCT-15 colon, 0.418 µM; in the test with SF-295 CNS it was 0.499 µM; in the test on SK-MEL-28 melanoma, 1.05 µM; in the test on UACC-62 melanoma, 0.369 µM; in the test on NCI-H522 lung it was 0.232 µM. The GI50 is 0.72 µM in the test on A549 NSCLC, 0.283 µM with OVCAR-3 ovarian, 0.672 µM with M14 melanoma and 0.604 µM in the test on MOLT-4 leukemia. The TGI in the test with HL-60(TB) leukemia turned out to be 1.95 µM; in the test with HCT-15 colon, 1.62 µM; in the test with SF-295 CNS, 1.79 µM; in the test with SK-MEL-28 melanoma it was 2.41 µM; in the test on UACC-62 melanoma it was 1.5 µM; in the test with NCI-H522 lung, 0.727 µM. Besides, the TGI stood at 2.07 µM with A549 NSCLC, 0.946 µM with OVCAR-3 ovarian, 2.09 µM with M14 melanoma and 2.14 µM in the test with MOLT-4 leukemia.
Consider `C=C1C(=O)OC2C1C(OC(=O)/C(C)=C/C)CC(O)(CCl)C1C(O)C3OC3(C)C21O` (stereo not given), for which the TGI is 23.2 µM with HL-60(TB) leukemia; > 50 µM with HCT-15 colon; > 50 µM in the test on SF-295 CNS; > 50 µM in the test on SK-MEL-28 melanoma; > 50 µM with UACC-62 melanoma; 10.2 µM with NCI-H522 lung. Moreover, the TGI with A549 NSCLC, in the test on OVCAR-3 ovarian, in the test on M14 melanoma and with MOLT-4 leukemia was > 50 µM throughout.
As to `CC1=C2C(=CC(C)(C)C2O)C(=O)C(C)(O)C12CC2` (stereo not given), the TGI with HL-60(TB) leukemia was 0.0149 µM; in the test with HCT-15 colon, 0.151 µM; in the test with SF-295 CNS it was 0.0342 µM; in the test with SK-MEL-28 melanoma, 0.0865 µM; with UACC-62 melanoma, 0.0324 µM; in the test with NCI-H522 lung, 0.017 µM. Besides, the TGI stood at 0.277 µM with A549 NSCLC, 0.0494 µM with OVCAR-3 ovarian, 0.0602 µM in the test with M14 melanoma and 0.0245 µM in the test with MOLT-4 leukemia.
As for `[N-]=[N+]=NC(CI)c1cn([C@H]2C[C@H](O)[C@@H](CO)O2)c(=O)[nH]c1=O` (stereo not given in full), the TGI in the test with HL-60(TB) leukemia, with HCT-15 colon, in the test with SF-295 CNS, in the test with SK-MEL-28 melanoma, in the test with UACC-62 melanoma and with NCI-H522 lung was > 100 µM in each case. For the same compound, the TGI with A549 NSCLC, in the test with OVCAR-3 ovarian, in the test with M14 melanoma and in the test with MOLT-4 leukemia was > 100 µM in each case.
Turning to `O=CN/C=C/c1ccc(O)c(O)c1`, the TGI in the test on HL-60(TB) leukemia, with HCT-15 colon, in the test on SF-295 CNS, in the test on SK-MEL-28 melanoma, in the test on UACC-62 melanoma and with NCI-H522 lung was > 100 µM each time. The TGI in the test on A549 NSCLC, in the test with OVCAR-3 ovarian, in the test on M14 melanoma and in the test on MOLT-4 leukemia was > 100 µM in each case.

Source of the values: PubChem BioAssay (NCI).
